Earlier results, collected in patent publication US10201537B2 (INFLAMMATORY RESPONSE RESEARCH, INC., priority 2013, dated 2019).
Read-outs that look alike come from different tables or passages of the source.

What was measured:
[1] = in vivo
[2] = system: histamine induced wheal and flare; conditions: levocetirizine 5 mg per day vs fexofenadine 180 mg per day
influenza = conditions: human, in vivo
[3] = warfarin, theophylline, digoxin, terfenadine, oral contraceptives, prednisone
[4] = for time to steady state level: montelukast, oral
[5] = system: granulocyte and macrophage proliferation; conditions: in vivo

For `O=C(O)COCCN1CCN([C@H](c2ccccc2)c2ccc(Cl)cc2)CC1` [Levocetirizine], the eosinophil migration (eosinophil migration) is listed as “decrease eosinophil migration”, the “principal side effect at higher doses” value (humans; higher doses) is listed as “Sedation” and the “doses safely administered in humans” value (humans; in vivo) is listed as “up to 30 mg/day”. The “time to steady state level” value [1] was 40 h, the “inflammatory mediators IL-4, IL-6, and IL-8” value (IL-4, IL-6, and IL-8) was “decrease inflammatory mediators” and the effectiveness versus fexofenadine [2] was “more effective than fexofenadine”.

In the case of `CCOC(=O)C1=C[C@@H](OC(CC)CC)[C@H](NC(C)=O)[C@@H](N)C1` [oseltamivir], the “influenza related lower respiratory tract complications” value (influenza) is given as “did not appear to reduce influenza related lower respiratory tract complications”.

In the case of `CC(C)(O)c1ccccc1CC[C@@H](SCC1(CC(=O)O)CC1)c1cccc(/C=C/c2ccc3ccc(Cl)cc3n2)c1` [Montelukast], the drug interactions [3] is listed as “no drug interactions”, the “doses without clinically important adverse experiences” value (adult patients; adult patients, 22 weeks) is listed as “up to 200 mg/day” and the “doses without clinically important adverse experiences” value (adult patients; short-term studies, approximately one week) is listed as “up to 900 mg/day”. The “plasma concentration area under the curve profile” value ([4]; IV montelukast 7 mg vs 10 mg oral tablet) was “comparable to the approved 10 mg oral montelukast tablet”, the absorption ([4]; in vivo) was “rapidly absorbed” and the “linear pharmacokinetics to dose” value ([4]; in vivo) was ≤ 50 mg. The “time to peak plasma concentration” value ([4]; in vivo) was 3 to 4 h, the “time to steady state level” value [4] was “less than two days” and the “time to steady state level” value ([4]; listed as montelukast) was “within two days”. The “effect of a standard meal on oral bioavailability and Cmax” value ([4]; standard meal) was “not affected by a standard meal”.

B1: filgrastim (protein, chains of the INN, looked up)
chain: MTPLGPASSLPQSFLLKCLEQVRKIQGDGAALQEKLCATYKLCHPEELVLLGHSLGIPWAPLSSCPSQALQLAGCLSQLHSGLFLYQGLLQALEGISPELGPTLDTLQLDVADFATTIWQQMEELGMAPALQPTQGAMPAFASAFQRRAGGVLVASHLQSFLEVSYRVLRHLAQP
modifications: N-terminal methionine, non-glycosylated
notes: protein stimulating granulocyte and macrophage proliferation and differentiation
For B1, the serious reactions [5] is listed as “splenic rupture, ARDS, thrombocytopenia, cutaneous vasculitis, and hemorrhage”.
